Assay results taken from patent publication EP3964196A1, “USE OF CHL[…] CETYLPYRIDINIUM CHLORIDE AS ANTIVIRAL AGENTS” (Ferton Holding S.A., priority 2020, dated 2022).

Tested on: SARS-CoV-2
Experiment: Virucidal efficacy: 30sec incubation of SARS-CoV-2 with mouth rinsing solution, then standard plaque assay on Vero E6 cells
Format: cell-based, Severe acute respiratory syndrome coronavirus 2
Details: 1x10^6 pfu SARS-CoV-2 incubated with solution (2-fold diluted) for 30sec at 37°C; Dilution 4 analyzed on Vero E6; compared to negative control
Protocol: A mouth rinsing solution according to the invention (see example 1 below) and some of their individual active components were tested regarding their virucidal efficacy against the novel coronavirus SARS-CoV-2, in vitro. To evaluate if this procedure is sufficient to successfully inactivate SARS-CoV-2, in the following study 1x10^6 infectious SARS-CoV-2 particles were incubated with the solutions (dilution factor: 2) for 30sec. After a serial dilution the samples were submitted to a standard plaque assay to check for the presence of infectious virus particles post incubation with the different solutions.
Test solutions: • Example 1 (0.1% Chlorhexidine (CHX), 0.05% CPC, PEG-40 hydrogenated castor oil), according to the invention Comparative examples: • 0.1% CHX plus 0.05% CPC • 0.05% CPC • 0.1% CHX • 1.5% H2O2 • 0.5% H2O2 […]
The samples were mixed briefly by vortexing and incubated at 37°C for 30sec. […] Dilution 4 of each sample was analyzed in technical duplicates in a plaque assay. […]
The virucidal activity of example 1 and some of their individual components were investigated against the novel corona virus SARS-CoV-2 by a 30sec incubation of 1x10^6 pfu SARS-CoV-2 with the test substances, followed by a standard plaque assay. […] Medium", positive control, in column 3, each analyzed in technical duplicates.

| SMILES | infectious SARS-CoV-2 particles / number of plaques in the plaque assay |
| --- | --- |
| [H]/N=C(\N/C(=N/[H])NCCCCCCNC(=N)NC(=N)Nc1ccc(Cl)cc1)Nc1ccc(Cl)cc1 [0.1% CHX, Chlorhexidine] | no reduction compared to the negative control |
| OO [1.5% H2O2, Hydrogen peroxide] | no reduction compared to the negative control |
